Paper PMC12486440, “Design, synthesis, and in silico studies of new benzofuran–pyrazole hybrids as multi-kinase inhibitors with potential antiproliferative activity” (RSC Advances, 2025)

Tests used:
[1] = tested on: SR; details: single dose 10 μM; leukemia
[2] = tested on: KM12; details: single dose 10 μM; colon cancer
[3] = tested on: A498; details: single dose 10 μM; renal carcinoma
[4] = tested on: SK-OV-3; details: single dose 10 μM; ovarian carcinoma
[5] = tested on: SK-MEL-5; details: single dose 10 μM; melanoma
[6] = tested on: HOP-92; details: single dose 10 μM; non-small lung carcinoma
[7] = tested on: MCF7; details: single dose 10 μM; breast carcinoma
[8] = tested on: SW-620; details: single dose 10 μM; colon cancer
[9] = tested on: NCI-H226; details: single dose 10 μM; non-small lung carcinoma
[10] = tested on: T-47D; details: single dose 10 μM; breast carcinoma
[11] = tested on: MDA-MB-435; details: single dose 10 μM; melanoma
[12] = tested on: HOP-62; details: single dose 10 μM; non-small lung carcinoma
[13] = tested on: M14; details: single dose 10 μM; melanoma
[14] = tested on: SN12C; details: single dose 10 μM; renal carcinoma
[15] = tested on: A549/ATCC; details: single dose 10 μM; non-small lung carcinoma
[16] = tested on: SK-MEL-2; details: single dose 10 μM; melanoma
[17] = tested on: HCT-116; details: single dose 10 μM; colon cancer
[18] = tested on: UACC-62; details: single dose 10 μM; melanoma
[19] = tested on: EKVX; details: single dose 10 μM; non-small lung carcinoma
[20] = tested on: PC-3; details: single dose 10 μM; prostate carcinoma
[21] = tested on: SNB-19; details: single dose 10 μM; CNS cancer
[22] = tested on: HT29; details: single dose 10 μM; colon cancer
[23] = tested on: OVCAR-5; details: single dose 10 μM; ovarian carcinoma
[24] = tested on: BT-549; details: single dose 10 μM; breast carcinoma
[25] = tested on: SNB-75; details: single dose 10 μM; CNS cancer
[26] = tested on: MOLT-4; details: single dose 10 μM; leukemia
[27] = tested on: TK-10; details: single dose 10 μM; renal carcinoma
[28] = tested on: K-562; details: single dose 10 μM; leukemia
[29] = tested on: MALME-3M; details: single dose 10 μM; melanoma
[30] = tested on: HL-60(TB); details: single dose 10 μM; leukemia
[31] = tested on: U251; details: single dose 10 μM; CNS cancer
[32] = tested on: HCC-2998; details: single dose 10 μM; colon cancer
[33] = tested on: CCRF-CEM; details: single dose 10 μM; leukemia
[34] = tested on: NCI 60 cancer cell line panel; assay: NCI 60 full panel summary; details: single dose 10 μM; mean over the NCI 60 panel
[35] = tested on: RPMI-8226; details: single dose 10 μM; leukemia
[36] = tested on: HCT-15; details: single dose 10 μM; colon cancer
[37] = tested on: NCI-H522; details: single dose 10 μM; non-small lung carcinoma
[38] = tested on: SF-539; details: single dose 10 μM; CNS cancer
[39] = tested on: UO-31; details: single dose 10 μM; renal carcinoma
[40] = tested on: SF-295; details: single dose 10 μM; CNS cancer
[41] = tested on: SK-MEL-28; details: single dose 10 μM; melanoma
[42] = tested on: UACC-257; details: single dose 10 μM; melanoma
[43] = tested on: CAKI-1; details: single dose 10 μM; renal carcinoma
[44] = tested on: MDA-MB-468; details: single dose 10 μM; breast carcinoma
[45] = tested on: LOX IMVI; details: single dose 10 μM; melanoma
[46] = tested on: 786–0; details: single dose 10 μM; renal carcinoma
[47] = tested on: ACHN; details: single dose 10 μM; renal carcinoma
[48] = tested on: OVCAR-8; details: single dose 10 μM; ovarian carcinoma
[49] = tested on: SF-268; details: single dose 10 μM; CNS cancer
[50] = tested on: OVCAR-4; details: single dose 10 μM; ovarian carcinoma
[51] = tested on: NCI-H23; details: single dose 10 μM; non-small lung carcinoma

c1ccc(C2=NNC(c3cn(-c4ccccc4)nc3-c3cc4ccccc4o3)C2)cc1 (centres unmarked) [3a, 3-(Benzofuran-2-yl)-4-(3-phenyl-4,5-dihydro-1H-pyrazol-5-yl)-1-phenyl-1H-pyrazole] was tested, and the GI% [1] was 15.96%, the GI% [2] was 62.60% and the GI% [3] was 6.22%. For the same molecule, the GI% [4] was 8.93%, the GI% [5] was 0.18% and the GI% [6] was 22.19%. It also gave a GI% [7] of 7.06%, a GI% [8] of 79.60% and a GI% [9] of 8.13%. The GI% [10] was 10.71%, the GI% [11] was −6.37% and the GI% [12] was 2.07%. The GI% [13] was 0.57%, the GI% [14] was 12.27% and the GI% [15] was 3.63%. The GI% [16] was −6.14%, the GI% [17] was 99.83% and the GI% [18] was 7.34%. For the same molecule, the GI% [19] was 6.43%, the GI% [20] was 8.08% and the GI% [21] was 5.98%. It also gave a GI% [22] of 54.87%, a GI% [23] of 3.74% and a GI% [24] of 0.80%. For the same molecule, the GI% [25] was −10.52%, the GI% [26] was 0.33% and the GI% [27] was 10.65%. For the same molecule, the GI% [28] was 6.49%, the GI% [29] was 3.67% and the GI% [30] was 0.73%. For the same molecule, the GI% [31] was 2.33%, the GI% [32] was 66.78% and the GI% [33] was 12.98%. The “Mean GI%” value [34] was 2.24%, the GI% [35] was 2.58% and the GI% [36] was 75.31%. For the same molecule, the GI% [37] was 3.69%, the GI% [38] was 6.00% and the GI% [39] was 14.55%. It also gave a GI% [40] of 9.51%, a GI% [41] of 2.00% and a GI% [42] of 6.06%. The GI% [43] was 11.52%.

CC(=O)N1N=C(c2ccccc2)CC1c1cn(-c2ccccc2)nc1-c1cc2ccccc2o1 (centres unmarked) [4a, 1-(5-(3-(Benzofuran-2-yl)-1-phenyl-1H-pyrazol-4-yl)-3-phenyl-4,5-dihydropyrazol-1-yl)ethanone] was tested, and the GI% [1] was 17.00%, the GI% [4] was 9.60% and the GI% [5] was 0.15%. For the same molecule, the GI% [6] was 16.24%, the GI% [7] was 11.19% and the GI% [9] was 0.69%. The GI% [10] was 12.41%, the GI% [12] was 1.18% and the GI% [18] was 8.33%. The GI% [19] was 6.06%, the GI% [20] was 8.29% and the GI% [21] was 5.00%. The GI% [22] was 0.65%, the GI% [23] was 3.55% and the GI% [24] was 9.06%. It also gave a GI% [25] of 1.45%, a GI% [26] of 7.01% and a GI% [27] of 11.62%. The GI% [28] was 6.90%, the GI% [29] was 1.02% and the GI% [30] was 2.27%. For the same molecule, the GI% [31] was 1.60%, the GI% [33] was 15.54% and the “Mean GI%” value [34] was 1.66%. For the same molecule, the GI% [44] was 3.32%, the GI% [35] was 6.01% and the GI% [36] was 2.61%. The GI% [45] was 4.25%, the GI% [37] was 2.75% and the GI% [38] was 8.41%. The GI% [39] was 15.50%, the GI% [40] was 5.69% and the GI% [46] was 2.59%. For the same molecule, the GI% [43] was 13.36%.

For COc1ccc(C2=NNC(c3cn(-c4ccccc4)nc3-c3cc4ccccc4o3)C2)cc1 (centres unmarked) [3b, 3-(Benzofuran-2-yl)-4-(3-(4-methoxyphenyl)-4,5-dihydro-1H-pyrazol-5-yl)-1-phenyl-1H-pyrazole], the GI% [1] was 7.24%, the GI% [47] was 5.79% and the GI% [3] was 2.47%. For the same molecule, the GI% [4] was 6.45%, the GI% [6] was 3.27% and the GI% [7] was 2.03%. It also gave a GI% [9] of 1.48%, a GI% [10] of 2.60% and a GI% [12] of 4.32%. It also gave a GI% [13] of 4.94%, a GI% [18] of 8.16% and a GI% [19] of 0.52%. The GI% [20] was 12.08%, the GI% [21] was 2.46% and the GI% [48] was 1.00%. It also gave a GI% [24] of 4.37%, a GI% [25] of 0.28% and a GI% [26] of 8.04%. The GI% [27] was 3.17%, the GI% [28] was 7.50% and the GI% [29] was 4.88%. For the same molecule, the GI% [30] was 2.83%, the GI% [33] was 17.25% and the “Mean GI%” value [34] was 0.8%. The GI% [44] was 7.03%, the GI% [35] was 7.55% and the GI% [36] was 1.12%. The GI% [37] was 0.82%, the GI% [38] was 4.09% and the GI% [39] was 26.14%. For the same molecule, the GI% [40] was 1.43% and the GI% [43] was 17.83%.

Work on “3-(5-(Benzofuran-2-yl)-1-phenyl-1H-pyrazol-3-yl)-1-phenylprop-2-en-1-one [2a]” yielded a GI% [1] of 17.52%, a GI% [2] of 1.62% and a GI% [3] of 1.16%. The GI% [7] was 5.38%, the GI% [8] was 0.70% and the GI% [11] was 0.51%. The GI% [13] was 0.52%, the GI% [14] was 0.82% and the GI% [15] was 4.22%. It also gave a GI% [18] of 2.28%, a GI% [19] of 0.89% and a GI% [21] of 4.72%. It also gave a GI% [23] of 0.37%, a GI% [25] of 19.77% and a GI% [26] of 3.22%. The GI% [27] was 5.20%, the GI% [28] was 5.10% and the GI% [29] was 1.12%. The GI% [30] was 7.64%, the GI% [49] was 4.98% and the GI% [50] was 1.64%. For the same molecule, the “Mean GI%” value [34] was 0.37%, the GI% [44] was 0.19% and the GI% [37] was 3.81%. It also gave a GI% [38] of 0.23%, a GI% [39] of 7.39% and a GI% [40] of 5.84%. The GI% [51] was 1.16%, the GI% [42] was 5.50% and the GI% [46] was 1.14%. The GI% [43] was 15.01%.
